Literature values, collected in US4510132A, “Compounds for use in antibacterial therapy” (priority 1982, dated 1985).

Experiments:
[1] = Chihara et al 1973, 1974; cited from earlier work
mice = details: Chihara et al, Kajiwara et al; cited from earlier work

## polymyxin E nonapeptide [PMEN]
[1]
  antibacterial activity compared with colistin: lack the antibacterial activity of colistin
mice
  toxicity to eukaryotes (mice) compared with parent compound colistin: significantly less toxic
